According to article PMC5218480 (PLoS ONE, 2017):

System: MV-4-11 cells
Assay: Gene expression microarray analysis (Affymetrix PrimeView) and GSEA
Assay type: cell-based, human
Set-up: RFU PODN (11730768_x_at) / Fold change /veh PODN (11730768_x_at) / RFU LINC00158 (11744669_a_at) / Fold change /veh LINC00158 (11744669_a_at) / RFU DUSP10 (11751237_a_at) / Fold change /veh DUSP10 (11751237_a_at) / RFU ID3 (11757404_x_at) / Fold change /veh ID3 (11757404_x_at) / RFU PLEKHG5 (11737974_s_at) / Fold change /veh PLEKHG5 (11737974_s_at) / RFU LRRC4B (11730491_at) / Fold change /veh LRRC4B (11730491_at) / RFU GIMAP4 (11747438_a_at) / Fold change /veh GIMAP4 (11747438_a_at) / RFU KRT8 (11758183_x_at) / Fold change /veh KRT8 (11758183_x_at) / RFU CNN1 (11734310_a_at) / Fold change /veh CNN1 (11734310_a_at) / RFU VPS37D (11726825_at) / Fold change /veh VPS37D (11726825_at) / RFU C10orf10 (11716522_x_at) / Fold change /veh C10orf10 (11716522_x_at) / RFU KIR2DL2 /// KIR2DL4 /// KIR2DL5A /// KIR2DL5B /// KIR2DS1 /// KIR2DS2 /// KIR2DS3 /// KIR2DS4 /// KIR3DL3 /// KIR3DL3 /// KIR3DS1 (11738374_at) / Fold change /veh KIR2DL2 /// KIR2DL4 /// KIR2DL5A /// KIR2DL5B /// KIR2DS1 /// KIR2DS2 /// KIR2DS3 /// KIR2DS4 /// KIR3DL3 /// KIR3DL3 /// KIR3DS1 (11738374_at) / RFU C1QL1 (11718748_at) / Fold change /veh C1QL1 (11718748_at) / RFU TMPRSS4 (11747572_a_at) / Fold change /veh TMPRSS4 (11747572_a_at) / RFU HAMP (11756126_x_at) / Fold change /veh HAMP (11756126_x_at) / RFU RNFT2 (11725882_a_at) / Fold change /veh RNFT2 (11725882_a_at) / RFU NR4A2 (11747474_a_at) / Fold change /veh NR4A2 (11747474_a_at) / RFU ABCC12 (11746883_a_at) / Fold change /veh ABCC12 (11746883_a_at) / RFU TMEM136 (11760407_x_at) / Fold change /veh TMEM136 (11760407_x_at) / RFU CLDN22 /// WWC2 (11732394_at) / Fold change /veh CLDN22 /// WWC2 (11732394_at) / RFU HLA-DPB1 (11760878_x_at) / Fold change /veh HLA-DPB1 (11760878_x_at) / RFU SPINT1 (11716480_a_at) / Fold change /veh SPINT1 (11716480_a_at) / RFU GAP43 (11754022_s_at) / Fold change /veh GAP43 (11754022_s_at) / RFU A4GNT (11735810_at) / Fold change /veh A4GNT (11735810_at) / RFU PRB3 (11715151_x_at) / Fold change /veh PRB3 (11715151_x_at) / RFU TUBB4B (11761932_at) / Fold change /veh TUBB4B (11761932_at) / RFU CAPN14 (11732068_a_at) / Fold change /veh CAPN14 (11732068_a_at) / RFU TMCC2 (11721928_a_at) / Fold change /veh TMCC2 (11721928_a_at) / RFU IRGQ (11745062_a_at) / Fold change /veh IRGQ (11745062_a_at) / RFU FAM174B (11720279_a_at) / Fold change /veh FAM174B (11720279_a_at) / RFU TMPRSS4 (11748680_a_at) / Fold change /veh TMPRSS4 (11748680_a_at) / RFU FAM212B (11763350_a_at) / Fold change /veh FAM212B (11763350_a_at) / RFU PLEKHG5 (11743358_a_at) / Fold change /veh PLEKHG5 (11743358_a_at) / RFU ZSCAN30 (11745921_a_at) / Fold change /veh ZSCAN30 (11745921_a_at) / RFU CMKLR1 (11741424_a_at) / Fold change /veh CMKLR1 (11741424_a_at) / RFU LOC101060620 /// MAPK8IP1 (11723275_at) / Fold change /veh LOC101060620 /// MAPK8IP1 (11723275_at) / RFU SPTSSB (11747773_x_at) / Fold change /veh SPTSSB (11747773_x_at) / RFU PRSS12 (11739890_at) / Fold change /veh PRSS12 (11739890_at) / RFU BIN1 (11741810_x_at) / Fold change /veh BIN1 (11741810_x_at) / RFU WNT11 (11732464_a_at) / Fold change /veh WNT11 (11732464_a_at) / RFU C10orf10 (11716521_a_at) / Fold change /veh C10orf10 (11716521_a_at) / RFU C5orf56 (11738089_at) / Fold change /veh C5orf56 (11738089_at) / RFU CYB561 (11721691_x_at) / Fold change /veh CYB561 (11721691_x_at) / RFU ANKRD19P (11752326_a_at) / Fold change /veh ANKRD19P (11752326_a_at) / RFU OR2T12 /// OR2T33 /// OR2T8 (11738714_s_at) / Fold change /veh OR2T12 /// OR2T33 /// OR2T8 (11738714_s_at) / RFU VCAN (11748164_a_at) / Fold change /veh VCAN (11748164_a_at) / RFU JSRP1 (11732532_at) / Fold change /veh JSRP1 (11732532_at) / RFU KRTAP10-11 (11738290_x_at) / Fold change /veh KRTAP10-11 (11738290_x_at) / RFU MYO3A (11730013_a_at) / Fold change /veh MYO3A (11730013_a_at) / RFU EBF3 (11725865_a_at) / Fold change /veh EBF3 (11725865_a_at) / RFU CAMK2N1 (11719241_x_at) / Fold change /veh CAMK2N1 (11719241_x_at) / RFU C5orf56 (11738088_a_at) / Fold change /veh C5orf56 (11738088_a_at) / RFU OLFML3 (11715873_a_at) / Fold change /veh OLFML3 (11715873_a_at) / RFU LOC100653217 /// NTM (11731650_a_at) / Fold change /veh LOC100653217 /// NTM (11731650_a_at) / RFU MAPK11 (11762145_a_at) / Fold change /veh MAPK11 (11762145_a_at) / RFU FIZ1 (11724087_x_at) / Fold change /veh FIZ1 (11724087_x_at) / RFU OASL (11726364_x_at) / Fold change /veh OASL (11726364_x_at) / RFU SOX15 (11748057_x_at) / Fold change /veh SOX15 (11748057_x_at) / RFU CD79A (11719716_a_at) / Fold change /veh CD79A (11719716_a_at) / RFU HIST1H1D (11736915_at) / Fold change /veh HIST1H1D (11736915_at) / RFU CASKIN2 (11723855_a_at) / Fold change /veh CASKIN2 (11723855_a_at) / RFU LOC730098 (11760151_x_at) / Fold change /veh LOC730098 (11760151_x_at) / RFU OR4N2 (11742367_at) / Fold change /veh OR4N2 (11742367_at) / RFU PRRT2 (11749266_a_at) / Fold change /veh PRRT2 (11749266_a_at) / RFU SNX32 (11753110_a_at) / Fold change /veh SNX32 (11753110_a_at) / RFU CDHR5 (11726645_a_at) / Fold change /veh CDHR5 (11726645_a_at) / RFU RCAN1 (11760418_a_at) / Fold change /veh RCAN1 (11760418_a_at) / RFU FAM167A (11723789_a_at) / Fold change /veh FAM167A (11723789_a_at) / RFU FAM26E (11764081_at) / Fold change /veh FAM26E (11764081_at) / RFU ISYNA1 (11749810_s_at) / Fold change /veh ISYNA1 (11749810_s_at) / RFU ACY1 (11761880_at) / Fold change /veh ACY1 (11761880_at) / RFU 11764098_at / Fold change /veh 11764098_at / RFU SAMD14 (11745864_x_at) / Fold change /veh SAMD14 (11745864_x_at) / RFU NPB (11741838_a_at) / Fold change /veh NPB (11741838_a_at) / RFU TMPRSS6 (11731388_a_at) / Fold change /veh TMPRSS6 (11731388_a_at) / RFU KRTAP10-2 (11738614_at) / Fold change /veh KRTAP10-2 (11738614_at) / RFU ARHGAP8 /// PRR5-ARHGAP8 (11727945_x_at) / Fold change /veh ARHGAP8 /// PRR5-ARHGAP8 (11727945_x_at) / RFU KRTAP5-7 /// NADSYN1 (11734609_at) / Fold change /veh KRTAP5-7 /// NADSYN1 (11734609_at) / RFU RASL12 (11751679_a_at) / Fold change /veh RASL12 (11751679_a_at) / RFU CDKN2B (11736163_a_at) / Fold change /veh CDKN2B (11736163_a_at) / RFU PRF1 (11729649_at) / Fold change /veh PRF1 (11729649_at) / RFU, ZNF638 /// ZNF638-IT1 / Fold change vs veh, ZNF638 /// ZNF638-IT1 / RFU, PANK3 / Fold change vs veh, PANK3 / RFU, SH3YL1 / Fold change vs veh, SH3YL1 / RFU, ZEB2 / Fold change vs veh, ZEB2 / RFU, NRIP1 / Fold change vs veh, NRIP1 / RFU, PTTG1IP / Fold change vs veh, PTTG1IP / RFU, CAPN2 / Fold change vs veh, CAPN2 / RFU, MED14 / Fold change vs veh, MED14 / RFU, SNORA58 / Fold change vs veh, SNORA58 / RFU, C1orf63 / Fold change vs veh, C1orf63 / RFU, LRRFIP1 / Fold change vs veh, LRRFIP1 / RFU, NDUFAF7 / Fold change vs veh, NDUFAF7 / RFU, SLC12A2 / Fold change vs veh, SLC12A2 / RFU, IBTK / Fold change vs veh, IBTK / RFU, ESF1 / Fold change vs veh, ESF1 / Fold change vs veh, TMEM50B / RFU, TAOK1 / Fold change vs veh, TAOK1 / RFU, ACBD3 / Fold change vs veh, ACBD3 / RFU, TMA16 / Fold change vs veh, TMA16 / RFU, RWDD3 / Fold change vs veh, RWDD3 / RFU, BCAT1 / Fold change vs veh, BCAT1 / RFU, EDEM3 / Fold change vs veh, EDEM3 / RFU, TMEM33 / Fold change vs veh, TMEM33 / RFU, WDR75 / Fold change vs veh, WDR75 / RFU, AHCTF1 / Fold change vs veh, AHCTF1 / RFU, TFRC / Fold change vs veh, TFRC / RFU, ZDHHC17 / Fold change vs veh, ZDHHC17 / RFU, NOM1 / Fold change vs veh, NOM1 / RFU, ARL8B / Fold change vs veh, ARL8B / RFU, ZBTB11 / Fold change vs veh, ZBTB11 / RFU, TAMM41 / Fold change vs veh, TAMM41 / RFU, KIAA1704 /// LOC100996395 / Fold change vs veh, KIAA1704 /// LOC100996395 / RFU, ING1 / Fold change vs veh, ING1 / RFU, TRMT61B / Fold change vs veh, TRMT61B / RFU, FUBP3 / Fold change vs veh, FUBP3 / RFU, TP53 / Fold change vs veh, TP53 / RFU, TNKS2 / Fold change vs veh, TNKS2 / RFU, ZFP14 / Fold change vs veh, ZFP14 / RFU, ACTR2 / Fold change vs veh, ACTR2 / RFU, PPP3R1 / Fold change vs veh, PPP3R1 / RFU, PIK3R1 / Fold change vs veh, PIK3R1 / RFU, HNRNPA1 / Fold change vs veh, HNRNPA1 / RFU, RNF170 / Fold change vs veh, RNF170 / RFU, ZNF28 / Fold change vs veh, ZNF28 / RFU, RNGTT / Fold change vs veh, RNGTT / RFU, OGT / Fold change vs veh, OGT / RFU, BRD1 / Fold change vs veh, BRD1 / RFU, MARS / Fold change vs veh, MARS / RFU, ZNF655 / Fold change vs veh, ZNF655 / RFU, FAHD1 / Fold change vs veh, FAHD1 / RFU, BDP1 / Fold change vs veh, BDP1 / RFU, LRRCC1 / Fold change vs veh, LRRCC1 / RFU, ARID1A / Fold change vs veh, ARID1A / RFU, ZNF146 / Fold change vs veh, ZNF146 / RFU, ZNF330 / Fold change vs veh, ZNF330 / RFU, GPN3 / Fold change vs veh, GPN3 / RFU, C9orf123 / Fold change vs veh, C9orf123 / RFU, N4BP2L2 / Fold change vs veh, N4BP2L2 / RFU, ARFIP1 / Fold change vs veh, ARFIP1 / RFU, FAM179B / Fold change vs veh, FAM179B / RFU, BCL10 / Fold change vs veh, BCL10 / RFU, UHRF1BP1L / Fold change vs veh, UHRF1BP1L / RFU, BET1 / Fold change vs veh, BET1 / RFU, CNOT2 / Fold change vs veh, CNOT2 / RFU, ZNF268 / Fold change vs veh, ZNF268 / Fold change vs veh, ZNF507 / RFU, DGCR2 / Fold change vs veh, DGCR2 / RFU, WDSUB1 / Fold change vs veh, WDSUB1 / Fold change vs veh, HSP90B1 /// MIR3652 / RFU, ADSS / Fold change vs veh, ADSS / RFU, GK / Fold change vs veh, GK / RFU, ZNF148 / Fold change vs veh, ZNF148 / RFU, TAF9 / Fold change vs veh, TAF9 / RFU, SLC1A5 / Fold change vs veh, SLC1A5 / RFU, SLMO2 / Fold change vs veh, SLMO2 / RFU, ABCC4 / Fold change vs veh, ABCC4 / RFU, LOC101060439 /// RAP1B / Fold change vs veh, LOC101060439 /// RAP1B / RFU, RFX7 / Fold change vs veh, RFX7 / RFU, GTPBP10 / Fold change vs veh, GTPBP10 / RFU, CNEP1R1 / Fold change vs veh, CNEP1R1 / RFU, BIVM-ERCC5 /// ERCC5 / Fold change vs veh, BIVM-ERCC5 /// ERCC5 / RFU, ILF3 / Fold change vs veh, ILF3 / RFU 11762660_at / Fold change /veh 11762660_at / RFU VCAN (11757783_s_at) / Fold change /veh VCAN (11757783_s_at) / RFU DDX43 (11728927_at) / Fold change /veh DDX43 (11728927_at) / RFU KRT8 (11758188_x_at) / Fold change /veh KRT8 (11758188_x_at) / RFU NKD1 (11759106_at) / Fold change /veh NKD1 (11759106_at) / RFU SRD5A1 (11742802_a_at) / Fold change /veh SRD5A1 (11742802_a_at) / RFU TPSAB1 /// TPSB2 (11721975_s_at) / Fold change /veh TPSAB1 /// TPSB2 (11721975_s_at) / RFU GSTM3 (11746129_a_at) / Fold change /veh GSTM3 (11746129_a_at) / RFU IL23R (11737362_x_at) / Fold change /veh IL23R (11737362_x_at) / RFU TMEM51 (11727254_a_at) / Fold change /veh TMEM51 (11727254_a_at) / RFU PIWIL2 (11732686_x_at) / Fold change /veh PIWIL2 (11732686_x_at) / RFU ORM1 (11744905_x_at) / Fold change /veh ORM1 (11744905_x_at) / RFU CCDC152 (11743942_at) / Fold change /veh CCDC152 (11743942_at) / RFU ECM1 (11717891_a_at) / Fold change /veh ECM1 (11717891_a_at) / RFU IL23R (11748794_a_at) / Fold change /veh IL23R (11748794_a_at) / RFU TNFAIP8L3 (11732012_x_at) / Fold change /veh TNFAIP8L3 (11732012_x_at) / RFU MBOAT4 (11741988_at) / Fold change /veh MBOAT4 (11741988_at) / RFU 11764193_at / Fold change /veh 11764193_at / RFU TMEM53 (11763286_at) / Fold change /veh TMEM53 (11763286_at) / RFU MAGEB2 (11727129_at) / Fold change /veh MAGEB2 (11727129_at) / RFU TMEM200A (11744735_a_at) / Fold change /veh TMEM200A (11744735_a_at) / RFU CCDC152 (11751479_a_at) / Fold change /veh CCDC152 (11751479_a_at) / RFU FAM211A (11726209_a_at) / Fold change /veh FAM211A (11726209_a_at) / RFU RGS16 (11746705_a_at) / Fold change /veh RGS16 (11746705_a_at) / RFU VCAN (11755009_s_at) / Fold change /veh VCAN (11755009_s_at) / RFU RHOB (11743442_s_at) / Fold change /veh RHOB (11743442_s_at) / RFU RGS16 (11720943_a_at) / Fold change /veh RGS16 (11720943_a_at) / RFU RGS16 (11720944_at) / Fold change /veh RGS16 (11720944_at) / RFU, VPS4B / Fold change vs veh, VPS4B / RFU, CREB1 / Fold change vs veh, CREB1 / RFU, DNAJC13 / Fold change vs veh, DNAJC13 / RFU, GNAQ / Fold change vs veh, GNAQ / RFU, CDK5R1 / Fold change vs veh, CDK5R1 / RFU, ZRANB3 / Fold change vs veh, ZRANB3 / RFU, CUL4A / Fold change vs veh, CUL4A / RFU, CCNY / Fold change vs veh, CCNY / RFU, UFL1 / Fold change vs veh, UFL1 / RFU, COG3 / Fold change vs veh, COG3 / RFU, DIAPH2 / Fold change vs veh, DIAPH2 / RFU, SKA2 / Fold change vs veh, SKA2 / RFU, AFF3 / Fold change vs veh, AFF3 / RFU, LMF1 / Fold change vs veh, LMF1 / RFU, IPO11 / Fold change vs veh, IPO11 / RFU, DFFB / Fold change vs veh, DFFB / RFU, FOXP1 / Fold change vs veh, FOXP1 / RFU, CARD8 / Fold change vs veh, CARD8 / RFU, STRN3 / Fold change vs veh, STRN3 / RFU, ADK / Fold change vs veh, ADK / RFU, RASSF2 / Fold change vs veh, RASSF2 / RFU, WIPF1 / Fold change vs veh, WIPF1 / RFU, LARP1B / Fold change vs veh, LARP1B / RFU, RASA1 / Fold change vs veh, RASA1 / RFU, RB1 / Fold change vs veh, RB1 / RFU, PPFIA1 / Fold change vs veh, PPFIA1 / RFU, MAT2A / Fold change vs veh, MAT2A / RFU, CCT5 / Fold change vs veh, CCT5 / RFU, WDR92 / Fold change vs veh, WDR92 / RFU, CUX1 / Fold change vs veh, CUX1 / RFU, TTC7A / Fold change vs veh, TTC7A / RFU, TMEM135 / Fold change vs veh, TMEM135 / RFU, DEPTOR / Fold change vs veh, DEPTOR / RFU, CPM / Fold change vs veh, CPM / RFU, DNAJB6 / Fold change vs veh, DNAJB6 / RFU, CACNA2D3 / Fold change vs veh, CACNA2D3 / RFU, DTX4 / Fold change vs veh, DTX4 / RFU, TFCP2 / Fold change vs veh, TFCP2 / RFU, GMCL1 /// GMCL1P1 / Fold change vs veh, GMCL1 /// GMCL1P1 / RFU, AEBP2 / Fold change vs veh, AEBP2 / RFU, SNHG1 /// SNORD22 /// SNORD25 /// SNORD26 /// SNORD27 /// SNORD28 /// SNORD29 /// SNORD31 / Fold change vs veh, SNHG1 /// SNORD22 /// SNORD25 /// SNORD26 /// SNORD27 /// SNORD28 /// SNORD29 /// SNORD31 / Fold change (Aza/veh), C12orf56 (ProbeSet 11735607_a_at) / Fold change (ACY-1035/veh), C12orf56 (ProbeSet 11735607_a_at) / Fold change (Aza/veh), FGFR1OP (ProbeSet 11751329_s_at) / Fold change (ACY-1035/veh), FGFR1OP (ProbeSet 11751329_s_at) / Fold change (Aza/veh), VPS36 (ProbeSet 11739960_a_at) / Fold change (ACY-1035/veh), VPS36 (ProbeSet 11739960_a_at) / RFU SYPL1 (11715823_x_at) / Fold change /veh SYPL1 (11715823_x_at) / RFU IGFBP7 (11715501_s_at) / Fold change /veh IGFBP7 (11715501_s_at) / RFU REEP3 (11722064_at) / Fold change /veh REEP3 (11722064_at) / RFU IGLL1 (11728026_x_at) / Fold change /veh IGLL1 (11728026_x_at): dose or concentration left out as unconfirmed
Settings: MV-4-11 cells, 48 hours

## Nc1ncn([C@@H]2O[C@H](CO)[C@@H](O)[C@H]2O)c(=O)n1 [azacitidine]
  Fold change /veh LOC730098 (11760151_x_at): 1.03
